Data taken from PMC9450956 (Science translational medicine, 2021).

Columns and labels:
[1] = test system: SUMO1; test: Western and dot blots for SUMO1 in LN229 cells; format: cell-based, human; conditions: 72 hours
[2] = test system: SUMO1 mRNA; test: SUMO1 mRNA expression in LN229 cells; format: cell-based, human; conditions: LN229 cancer cells
[3] = test system: SUMO1-CDK6, SUMO1-RanGAP1, and SUMO3-RanGAP1 conjugation; test: In vitro sumoylation assay; format: biochemical; conditions: CDK6 and RanGap1 as substrates
[4] = test system: SUMO1; test: SUMO1 target engagement in colon cancer PDX mice; format: in vivo; conditions: intraperitoneal once per day for 3 days, dose-dependent
[5] = test system: NSCLC A549 and colon cancer HCT116 xenografts; test: Cancer cell line-derived subcutaneous xenografts; format: in vivo, mice; conditions: intraperitoneal, once per day for 14 days
[6] = test system: LN229-derived brain xenografts; test: LN229-derived intracranial brain xenografts, survival; format: in vivo, mice; conditions: intraperitoneal, once per day for 14 days; Kaplan-Meier
[7] = test system: human colon, breast carcinoma, and NSCLC PDXs; test: Cancer PDX mouse models, tumor progression and survival; format: in vivo, mice; conditions: for progression of PDXs: intraperitoneal, once per day for 14 days
[8] = test system: matched normal lung, colon, breast and brain cells; test: Cell viability, matched normal cells; format: cell-based, human; conditions: compared to cancer cell lines
[9] = target: T1, cellular CAPRIN1 (Homo sapiens, UniProt Q14444); test: HB007-biotin pull-down competition with cell lysates, immunoblot; format: binding; conditions: free compound added to cell lysates
T1 sequence (Q14444 1-709): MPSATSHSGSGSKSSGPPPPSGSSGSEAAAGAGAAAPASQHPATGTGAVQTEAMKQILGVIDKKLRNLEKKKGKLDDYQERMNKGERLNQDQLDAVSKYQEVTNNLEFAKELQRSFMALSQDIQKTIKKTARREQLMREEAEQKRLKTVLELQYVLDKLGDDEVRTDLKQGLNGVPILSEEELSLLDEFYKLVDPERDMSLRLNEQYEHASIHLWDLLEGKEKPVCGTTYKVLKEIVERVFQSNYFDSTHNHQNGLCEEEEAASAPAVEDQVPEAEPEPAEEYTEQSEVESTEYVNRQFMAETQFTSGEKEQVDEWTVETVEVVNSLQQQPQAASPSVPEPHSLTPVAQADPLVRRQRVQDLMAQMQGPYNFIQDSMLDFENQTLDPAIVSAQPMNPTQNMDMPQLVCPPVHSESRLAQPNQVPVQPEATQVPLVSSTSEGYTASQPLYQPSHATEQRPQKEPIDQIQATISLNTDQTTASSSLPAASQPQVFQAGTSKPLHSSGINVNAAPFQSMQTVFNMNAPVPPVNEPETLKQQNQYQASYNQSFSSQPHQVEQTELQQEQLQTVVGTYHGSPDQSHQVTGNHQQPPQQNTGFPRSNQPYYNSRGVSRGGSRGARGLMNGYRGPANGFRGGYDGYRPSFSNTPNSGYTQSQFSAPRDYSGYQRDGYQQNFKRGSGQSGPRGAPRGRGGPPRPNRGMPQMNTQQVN

[10] = test system: cytochrome P450s (2C9, 2D6, and 3A4); test: CYP inhibition in human liver microsomes; format: in vitro ADME; conditions: 10 μM
[11] = test system: kinases, ion channels, NHRs, enzymes; test: LeadProfilingScreen selectivity profiling; format: binding, human; conditions: 10 μM
[12] = target: human ether-a-go-go–related gene (Homo sapiens, UniProt Q12809); test: LeadProfilingScreen selectivity profiling; format: binding; conditions: 10 μM
Sequence of human ether-a-go-go–related gene (Q12809 whole entry): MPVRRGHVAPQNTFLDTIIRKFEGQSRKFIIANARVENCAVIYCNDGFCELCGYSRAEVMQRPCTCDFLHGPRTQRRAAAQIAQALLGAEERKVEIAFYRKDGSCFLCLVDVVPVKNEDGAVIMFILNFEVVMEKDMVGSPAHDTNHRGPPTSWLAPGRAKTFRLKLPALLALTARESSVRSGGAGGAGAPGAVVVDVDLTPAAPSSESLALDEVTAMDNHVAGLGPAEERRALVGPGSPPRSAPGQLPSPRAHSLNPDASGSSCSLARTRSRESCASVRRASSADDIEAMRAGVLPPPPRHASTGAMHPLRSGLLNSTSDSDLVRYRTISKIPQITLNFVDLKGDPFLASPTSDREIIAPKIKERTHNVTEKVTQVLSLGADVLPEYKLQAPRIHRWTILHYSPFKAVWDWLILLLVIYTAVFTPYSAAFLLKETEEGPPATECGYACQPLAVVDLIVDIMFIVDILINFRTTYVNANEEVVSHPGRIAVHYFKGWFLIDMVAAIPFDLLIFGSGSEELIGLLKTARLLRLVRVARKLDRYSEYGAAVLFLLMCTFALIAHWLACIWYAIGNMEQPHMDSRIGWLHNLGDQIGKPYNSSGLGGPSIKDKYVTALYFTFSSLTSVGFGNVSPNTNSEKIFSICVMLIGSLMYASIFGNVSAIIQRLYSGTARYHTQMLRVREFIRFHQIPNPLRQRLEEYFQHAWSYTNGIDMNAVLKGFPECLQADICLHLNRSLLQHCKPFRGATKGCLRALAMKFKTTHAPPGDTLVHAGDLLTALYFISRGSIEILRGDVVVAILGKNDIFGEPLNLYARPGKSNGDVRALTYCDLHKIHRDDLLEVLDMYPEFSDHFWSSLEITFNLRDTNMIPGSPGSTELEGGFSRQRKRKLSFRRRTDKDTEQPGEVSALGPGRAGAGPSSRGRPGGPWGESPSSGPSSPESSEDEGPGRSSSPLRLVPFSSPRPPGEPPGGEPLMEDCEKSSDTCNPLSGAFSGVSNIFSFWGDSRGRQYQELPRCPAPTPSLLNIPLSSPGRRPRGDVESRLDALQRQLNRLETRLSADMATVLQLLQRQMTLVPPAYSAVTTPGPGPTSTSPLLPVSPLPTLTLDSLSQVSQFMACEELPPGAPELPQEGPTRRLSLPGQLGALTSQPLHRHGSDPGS

[13] = target: adenosine A2A (Homo sapiens, UniProt P29274); test: LeadProfilingScreen selectivity profiling; format: binding; conditions: 10 μM
Sequence of adenosine A2A (P29274 whole entry): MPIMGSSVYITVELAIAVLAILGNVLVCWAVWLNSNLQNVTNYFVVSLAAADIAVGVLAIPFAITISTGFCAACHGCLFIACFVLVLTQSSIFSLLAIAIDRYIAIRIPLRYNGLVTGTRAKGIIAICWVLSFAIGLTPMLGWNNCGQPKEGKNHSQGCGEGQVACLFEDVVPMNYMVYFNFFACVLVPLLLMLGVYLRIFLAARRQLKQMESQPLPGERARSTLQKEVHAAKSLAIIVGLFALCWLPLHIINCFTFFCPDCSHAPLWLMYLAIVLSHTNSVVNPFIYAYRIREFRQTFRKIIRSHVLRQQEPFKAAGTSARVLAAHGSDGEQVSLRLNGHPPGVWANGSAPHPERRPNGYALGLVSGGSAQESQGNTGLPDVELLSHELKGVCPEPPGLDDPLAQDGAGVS

[14] = target: histamine H2 (Homo sapiens, UniProt P25021); test: LeadProfilingScreen selectivity profiling; format: binding; conditions: 10 μM
Sequence of histamine H2 (P25021 whole entry): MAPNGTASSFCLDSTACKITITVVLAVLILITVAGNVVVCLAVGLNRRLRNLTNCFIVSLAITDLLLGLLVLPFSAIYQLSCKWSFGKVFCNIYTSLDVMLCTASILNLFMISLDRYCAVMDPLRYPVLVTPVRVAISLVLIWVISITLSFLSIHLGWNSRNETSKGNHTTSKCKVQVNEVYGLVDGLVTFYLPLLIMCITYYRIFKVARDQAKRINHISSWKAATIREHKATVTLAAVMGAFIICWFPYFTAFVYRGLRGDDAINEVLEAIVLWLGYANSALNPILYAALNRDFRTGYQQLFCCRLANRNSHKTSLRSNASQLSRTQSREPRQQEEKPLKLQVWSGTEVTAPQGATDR

[15] = target: 5-hydroxytryptamine receptor 2B (5-HT2B) (Homo sapiens, UniProt P41595); test: LeadProfilingScreen selectivity profiling; format: binding; conditions: 10 μM
Sequence of 5-hydroxytryptamine receptor 2B (5-HT2B) (P41595 whole entry): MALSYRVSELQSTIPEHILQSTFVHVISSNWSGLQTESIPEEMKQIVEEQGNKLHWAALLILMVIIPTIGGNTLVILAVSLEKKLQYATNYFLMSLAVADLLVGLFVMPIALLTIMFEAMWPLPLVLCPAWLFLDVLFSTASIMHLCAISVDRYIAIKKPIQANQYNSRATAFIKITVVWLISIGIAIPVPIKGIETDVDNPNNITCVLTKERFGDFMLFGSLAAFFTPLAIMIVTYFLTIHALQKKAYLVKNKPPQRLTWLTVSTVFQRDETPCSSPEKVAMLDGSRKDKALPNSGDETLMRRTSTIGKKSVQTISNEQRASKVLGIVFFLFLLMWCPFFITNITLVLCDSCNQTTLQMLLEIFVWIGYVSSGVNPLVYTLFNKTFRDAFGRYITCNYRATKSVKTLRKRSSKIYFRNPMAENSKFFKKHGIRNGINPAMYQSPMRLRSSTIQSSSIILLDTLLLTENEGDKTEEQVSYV

[16] = Microsomal stability; format: in vitro ADME, mouse; conditions: 1 μM, 45 min, LC-MS
[17] = Microsomal stability; format: in vitro ADME, human; conditions: 1 μM, 45 min, LC-MS
[18] = Intraperitoneal PK, plasma and brain; format: in vivo, NOD/SCID mice; conditions: intraperitoneal injection 20 mg/kg, mice
[19] = Oral PK of solution formulation; format: in vivo; conditions: rat
[20] = Oral and intravenous PK of suspension; format: in vivo, rodents; conditions: administered as a suspension
[21] = test system: SUMO1; test: Western and dot blots for SUMO1 in HCT116 cells; format: cell-based, human; conditions: gradually over about 24 hours
[22] = test system: cancer cells; test: Caspase-3/7 activation and caspase-3 cleavage; format: cell-based, human; conditions: caspase-3 cleavage
[23] = test system: SUMO1; test: Western blots for SUMO1 in normal lung epithelial cells; format: cell-based, human; conditions: 72 hours; compared to lung cancer cells

With `O=C(Nc1ccc(Cl)c([N+](=O)[O-])c1)Nc1nc2ccccc2s1` [CPD1, 1-(1,3-benzothiazol-2-yl)-3-(4-chloro-3-nitrophenyl)urea] the “effect on SUMO1 and SUMO2/3 protein amounts” value [1] was “reduced the conjugated and unconjugated forms and total amounts of SUMO1 but not SUMO2/3 protein”, the “effect on SUMO1 mRNA expression” value [2] was “no effects” and the “effect on in vitro SUMO conjugation” value [3] was “no effects”. For the same molecule, the “effect on SUMO1 protein in xenograft tissues” value [4] was “markedly reduced both the total amounts and conjugate SUMO1 but not SUMO2/3 protein”, the xenograft growth [5] was “suppressed xenograft growth” and the “survival of brain xenograft-bearing mice” value [6] was “increased the survival”. For the same molecule, the “progression of PDXs” value [7] was “effectively suppressed the progression”.

With `N#Cc1ccc2nc(NC(=O)Nc3cccc(Cl)c3)sc2c1` [HB007] the “growth inhibition of matched normal cells” value [8] was “much lower growth inhibition effects”, the “competitive inhibition of binding of cellular CAPRIN1 to HB007-linked biotin” value (“competitive inhibition” below) [9] was “competitively blocked” and the “inhibition of CYP enzymes” value [10] was “did not inhibit”. The “activity against kinases, ion channels, NHRs, enzymes” value [11] was “no activity”, the “activity against human ether-a-go-go–related gene” value [12] was “no activity” and the “inhibition of adenosine A2A” value [13] was “some inhibition”. The “inhibition of histamine H2” value [14] was “some inhibition”, the “inhibition of 5-HT2B” value [15] was “some inhibition” and the “metabolic stability in mouse liver microsomes” value [16] was “sufficiently stable”. For the same molecule, the “metabolic stability in human liver microsomes” value [17] was “sufficiently stable”, the brain-to-plasma partition coefficient [18] was 0.57 and the “oral bioavailability in plasma” value [19] was “up to 82%”. For the same molecule, the “plasma concentrations after oral and intravenous administration” value [20] was “low plasma concentrations”, the “effect on SUMO1 and SUMO2/3 protein amounts” value [21] was “reduced the conjugated and total amounts of SUMO1 but not SUMO2/3 protein” and the “induction of apoptotic cell death” value [22] was “did not induce apoptotic cell death”. For the same molecule, the “effect on conjugated and total SUMO1 in normal lung epithelial cells” value [23] was “no effects”, the “effect on SUMO1 protein in xenograft tissues” value [4] was “markedly reduced both the total amounts and conjugate SUMO1 but not SUMO2/3 protein” and the xenograft growth [5] was “suppressed xenograft growth”. The “survival of PDX mice” value ([7]; BRCA1 mutant breast carcinoma and primary or metastatic colon carcinoma PDX) was “increased the survival” and the “progression of PDXs” value [7] was “effectively suppressed the progression”.

With `O=C(Nc1ccc(Cl)cc1)Nc1nc2ccccc2s1` [compound 789482, reference compound] the “competitive inhibition” value [9] was “failed to competitively inhibit”.

For `O=[N+]([O-])c1cccc2nc(Nc3ccc(Cl)cc3)sc12` [compound 11208948, reference compound], the “competitive inhibition” value [9] was “failed to competitively inhibit”.
